Data reported in patent US11046686B2, “Thiadiazole IRAK4 compounds” (Gilead Sciences, Inc., priority 2018, dated 2021).
Like-named read-outs stand apart in the source and are kept apart here.

Legend:
TNFα = test: IRAK4 Monocyte TNFα Cell Based Assay; design: species or system human
Procedure, shortened: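 TNFα release quantified by HTRF (cryptate/XL665 antibody pair, overnight at RT) after 1 h compound pre-incubation (0.1% DMSO) and 4 h LPS challenge at 50 pg/ml, 37 °C, 5,000 monocytes per well. Signal ratio normalised between unstimulated (0%) and stimulated (100%) controls.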

IRAK4 enzyme = IRAK4 enzyme (Homo sapiens (Human), UniProt Q9NWZ3); test: IRAK4 Biochemical Assay (TR-FRET, STK1 KinEASE)
Protocol: IRAK4 enzyme (Carna Biosciences, Chuo-ku, Kobe, Japan) activity was measured by detecting phosphorylated peptide substrate formation using an antibody against the phosphorylated peptide substrate. This is a time-resolved fluorescence resonance energy transfer (TR-FRET) immunoassay, based on the STK1 KinEASE Assay (Cisbio, Bedford, Mass.). The assay was designed as a simple two-step, endpoint assay (a 5 μl enzyme reaction followed by 5 μl stop and detect Solution) performed in ProxiPlate-384 Plus plates (Perkin Elmer, Waltham, Mass.). […] Compounds diluted in DMSO were spotted into 384 well plates using a Labcyte® Echo 550 Liquid Handling System prior to addition of IRAK4 enzyme and peptide substrate. Reaction solutions were delivered using a Multi-Flo (Bio-Tek Instruments). The enzyme and peptide solution was incubated with compound for 15 minutes at room temp before the reaction was initiated by the addition of ATP. The standard 5 μl reaction mixture contained 500 μM ATP, […] peptide (STK1 Peptide), 0.75 nM of IRAK4 in reaction buffer (50 mM HEPES, pH 7.0, 0.02% NaN3, 0.01% BSA, 0.1 mM Orthovanadate, 5 mM […], 0.025% NP-40, 1 mM DTT). After 120 min of incubation at room temperature, 5 μl of Stop and Detect Solution (1:100 Cryptate labeled anti-phosphorylated peptide antibody solution and 125 nM Tracer in a 50 mM HEPES pH 7.0 detection buffer containing sufficient EDTA) was added. The plate was then further incubated for 60 minutes at room temperature and read on Envision 2103 Multilabeled reader (PerkinElmer) with excitation/emission/FRET emission at 340 nm/615 nm665 nm, respectively. Fluorescence intensities at 615 nm and 665 nm emission wavelengths were expressed as aratio (665 nm/615 nm). Percentage of inhibition was calculated as below: % Inhibition=100×(Ratiosample−Ratio0% Inhibition)/(Ratio100% Inhibition−Ratio0% Inhibition)
The 0% inhibition value comes from control wells lacking inhibitor.

[1] = Homo sapiens, Monocyte, human monocytes, second part of Table 2, compounds 33-343, unit inferred, read-out: EC50 MONO TNF HTRF
[2] = Homo sapiens, Monocyte, read-out: EC50 MONO TNF HTRF
[3] = Homo sapiens, Monocyte, human monocytes, LPS stimulated, compounds 1-32, read-out: EC50 TNF
[4] = compounds 1-32, read-out: IC50 HTRF
[5] = human monocytes, second part of Table 2, compounds 33-343, unit inferred, read-out: EC50 MONO TNF HTRF
[6] = second part of Table 2, compounds 33-343, unit inferred, read-out: IC50 IRAK4-HTBS

Sequence of IRAK4 enzyme (Q9NWZ3 whole entry): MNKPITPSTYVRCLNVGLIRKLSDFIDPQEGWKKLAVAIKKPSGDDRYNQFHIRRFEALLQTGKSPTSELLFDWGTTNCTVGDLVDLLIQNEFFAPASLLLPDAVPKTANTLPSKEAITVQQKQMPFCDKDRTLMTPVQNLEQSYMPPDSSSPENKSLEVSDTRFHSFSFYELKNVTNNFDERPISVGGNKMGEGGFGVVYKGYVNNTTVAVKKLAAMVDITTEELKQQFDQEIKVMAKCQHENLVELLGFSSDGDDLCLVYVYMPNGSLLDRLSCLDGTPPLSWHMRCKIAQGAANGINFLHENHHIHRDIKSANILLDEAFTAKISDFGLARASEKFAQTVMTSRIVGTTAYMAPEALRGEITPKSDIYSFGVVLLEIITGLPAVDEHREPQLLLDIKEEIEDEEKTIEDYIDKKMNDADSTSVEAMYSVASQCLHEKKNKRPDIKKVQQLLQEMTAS

| SMILES | EC50 (TNFα; [1]) | IC50 (IRAK4 enzyme) | also measured |
| --- | --- | --- | --- |
| CC(C)Nc1cc(-c2ccc3cc(C#N)cnn23)ncc1-c1nnc(N2C[C@H]3C[C@@H]2CO3)s1 [Compound 237, 7-(5-(5-((1R,4R)-2-oxa-5-azabicyclo[2.2.1]heptan-5-yl)-1,3,4-thiadiazol-2-yl)-4-(isopropylamino)pyridin-2-yl)pyrrolo[1,2-b]pyridazine-3-carbonitrile] | 8.4 nM | 0.14 nM | – |
| CC(C)Nc1cc(-c2ccc3cc(C#N)cnn23)ncc1-c1nnc(N2C3CNCC2C3)s1 [Compound 274, 7-(5-(5-(3,6-diazabicyclo[3.1.1]heptan-6-yl)-1,3,4-thiadiazol-2-yl)-4-(isopropylamino)pyridin-2-yl)pyrrolo[1,2-b]pyridazine-3-carbonitrile] | – | 1.59 nM | EC50 (TNFα; [2]): 41 nM |
| CC(C)Nc1cc(-c2ccc3cc(C#N)cnn23)ncc1-c1nnc(N2CCOCC2)s1 [Example 131, 7-(4-(isopropylamino)-5-(5-morpholino-1,3,4-thiadiazol-2-yl)pyridin-2-yl)pyrrolo[1,2-b]pyridazine-3-carbonitrile] | 14.3 nM | 0.53 nM | – |
| CC(C)Nc1cc(-c2ccc3cc(C#N)cnn23)ncc1-c1nnc(N2CCN3CCOC[C@H]3C2)s1 [Example 36, (R)-7-(5-(5-(hexahydropyrazino[2,1-c][1,4]oxazin-8(1H)-yl)-1,3,4-thiadiazol-2-yl)-4-(isopropylamino)pyridin-2-yl)pyrrolo[1,2-b]pyridazine-3-carbonitrile] | 5 nM | 0.48 nM | – |
| CC(C)Nc1cc(-c2ccc3cc(C#N)cnn23)ncc1-c1nnc(N2CC3CC(C2)N3C(=O)OC(C)(C)C)s1 [Compound 271, tert-butyl 3-(5-(6-(3-cyanopyrrolo[1,2-b]pyridazin-7-yl)-4-(isopropylamino)pyridin-3-yl)-1,3,4-thiadiazol-2-yl)-3,6-diazabicyclo[3.1.1]heptane-6-carboxylate] | – | 3.22 nM | EC50 (TNFα; [2]): 89 nM |
| CC(=O)N[C@@H]1CC[C@H](c2nnc(-c3cnc(-c4ccc5cc(C#N)cnn45)cc3NC(C)C)s2)C1 [Compound 248, N-((1R,3S)-3-(5-(6-(3-cyanopyrrolo[1,2-b]pyridazin-7-yl)-4-(isopropylamino)pyridin-3-yl)-1,3,4-thiadiazol-2-yl)cyclopentyl)acetamide] | 16.3 nM | 0.93 nM | – |
| CC(=O)NC12CCC(c3nnc(-c4cnc(-c5ccc6cc(C#N)cnn56)cc4NC(C)C)s3)(CC1)C2 [Example 284, N-(4-(5-(6-(3-cyanopyrrolo[1,2-b]pyridazin-7-yl)-4-(isopropylamino)pyridin-3-yl)-1,3,4-thiadiazol-2-yl)bicyclo[2.2.1]heptan-1-yl)acetamide] | 17.6 nM | 0.69 nM | – |
| CC(C)Nc1cc(-c2ccc3cc(C#N)cnn23)ncc1-c1nnc(C23CCC(O)(CC2)CC3)s1 [Example 89, 7-(5-(5-(4-hydroxybicyclo[2.2.2]octan-1-yl)-1,3,4-thiadiazol-2-yl)-4-(isopropylamino)pyridin-2-yl)pyrrolo[1,2-b]pyridazine-3-carbonitrile] | 11.3 nM | 1.01 nM | – |
| CC(=O)N[C@@H]1CCCN(C(=O)c2nnc(-c3cnc(-c4ccc5cc(C#N)cnn45)cc3NC(C)C)s2)C1 [Example 49, (R)-N-(1-(5-(6-(3-cyanopyrrolo[1,2-b]pyridazin-7-yl)-4-(isopropylamino)pyridin-3-yl)-1,3,4-thiadiazole-2-carbonyl)piperidin-3-yl)acetamide] | 34.3 nM | 1.75 nM | – |
| CC(=O)N[C@H]1CCN(c2nnc(-c3cnc(-c4ccc5cc(C#N)cnn45)cc3NC(C)C)s2)C[C@H]1O [Example 62, N-((3R,4S)-1-(5-(6-(3-cyanopyrrolo[1,2-b]pyridazin-7-yl)-4-(isopropylamino)pyridin-3-yl)-1,3,4-thiadiazol-2-yl)-3-hydroxypiperidin-4-yl)acetamide] | 12.5 nM | 0.38 nM | – |
| CC(C)Nc1cc(-c2ccc3cc(C#N)cnn23)ncc1-c1nnc(N2CC3CCC(C2)O3)s1 [Compound 235, 7-(5-(5-(8-oxa-3-azabicyclo[3.2.1]octan-3-yl)-1,3,4-thiadiazol-2-yl)-4-(isopropylamino)pyridin-2-yl)pyrrolo[1,2-b]pyridazine-3-carbonitrile] | 4.4 nM | 0.48 nM | – |
| COC(=O)NC[C@H]1C[C@H](Nc2cc(-c3ccc4cc(C#N)cnn34)ncc2-c2nnc([C@H]3CC[C@H](NC(C)=O)CC3)s2)C1 [Example 23, methyl (((1R,3r)-3-((5-(5-((1r,4R)-4-acetamidocyclohexyl)-1,3,4-thiadiazol-2-yl)-2-(3-cyanopyrrolo[1,2-b]pyridazin-7-yl)pyridin-4-yl)amino)cyclobutyl)methyl)carbamate] | – | – | EC50 (TNFα; [3]): 6 nM; IC50 (IRAK4 enzyme; [4]): < 1 nM |
| CC(=O)N1CCC(c2nnc(-c3cnc(-c4ccc5cc(C#N)cnn45)cc3NC(C)C)s2)CC1 [Example 128, 7-(5-(5-(1-acetylpiperidin-4-yl)-1,3,4-thiadiazol-2-yl)-4-(isopropylamino)pyridin-2-yl)pyrrolo[1,2-b]pyridazine-3-carbonitrile] | 18.8 nM | 0.59 nM | – |
| [2H]C([2H])([2H])C(O)(CCc1nnc(-c2cnc(-c3ccc4cc(C#N)cnn34)cc2NC(C)C)s1)C([2H])([2H])[2H] [Example 317, 7-(5-(5-(3-hydroxy-3-(methyl-d3)butyl-4,4,4-d3)-1,3,4-thiadiazol-2-yl)-4-(isopropylamino)pyridin-2-yl)pyrrolo[1,2-b]pyridazine-3-carbonitrile] | 4.4 nM | 0.6 nM | – |
| CC(=O)N[C@H]1CC[C@H](c2nnc(-c3cnc(-c4ccc5cc(C#N)cnn45)cc3N[C@H]3CC[C@H](c4nnc(C(F)F)o4)CC3)s2)CC1 [Example 2, N-((1R,4r)-4-(5-(6-(3-cyanopyrrolo[1,2-b]pyridazin-7-yl)-4-(((1r,4R)-4-(5-(difluoromethyl)-1,3,4-oxadiazol-2-yl)cyclohexyl)amino)pyridin-3-yl)-1,3,4-thiadiazol-2-yl)cyclohexyl)acetamide] | – | – | EC50 (TNFα; [3]): 8 nM; IC50 (IRAK4 enzyme; [4]): 1 nM |
| CC(=O)N[C@H]1CC[C@H](c2nnc(-c3cnc(-c4ccc5cc(C#N)cnn45)cc3N[C@H](C)C#N)s2)CC1 [Example 316, N-((1R,4r)-4-(5-(4-(((R)-1-cyanoethyl)amino)-6-(3-cyanopyrrolo[1,2-b]pyridazin-7-yl)pyridin-3-yl)-1,3,4-thiadiazol-2-yl)cyclohexyl)acetamide] | 5.3 nM | 0.59 nM | – |
| CC(=O)NC1CCN(c2nnc(-c3cnc(-c4ccc5cc(C#N)cnn45)cc3NC(C)C)s2)CC1 [Example 6, N-(1-(5-(6-(3-cyanopyrrolo[1,2-b]pyridazin-7-yl)-4-(isopropylamino)pyridin-3-yl)-1,3,4-thiadiazol-2-yl)piperidin-4-yl)acetamide] | – | – | EC50 (TNFα; [3]): 19 nM; IC50 (IRAK4 enzyme; [4]): < 1 nM |
| CC(C)(O)[C@H]1C[C@H]1c1nnc(-c2cnc(-c3ccc4cc(C#N)cnn34)cc2NC2COC2)s1 (single isomer, unassigned; isomer 4) [136 Isomer 4] | – | – | EC50 (TNFα; [5]): 30.5 nM; IC50 (IRAK4 enzyme; [6]): 0.74 nM |
| CC(C)Nc1cc(-c2ccc3cc(C#N)cnn23)ncc1-c1nnc(N2C[C@H]3CC[C@@H](C2)[C@@H]3NC(=O)C2CN(C)C2)s1 [Example 102, N-((1R,5S,8s)-3-(5-(6-(3-cyanopyrrolo[1,2-b]pyridazin-7-yl)-4-(isopropylamino)pyridin-3-yl)-1,3,4-thiadiazol-2-yl)-3-azabicyclo[3.2.1]octan-8-yl)-1-methylazetidine-3-carboxamide] | – | – | EC50 (TNFα; [5]): 31.4 nM; IC50 (IRAK4 enzyme; [6]): 1.22 nM |
| CC(=O)N[C@@H]1CCN(c2nnc(-c3cnc(-c4ccc5cc(C#N)cnn45)cc3NC(C)C)s2)C[C@@H]1F [Compound 250, N-((3S,4R)-1-(5-(6-(3-cyanopyrrolo[1,2-b]pyridazin-7-yl)-4-(isopropylamino)pyridin-3-yl)-1,3,4-thiadiazol-2-yl)-3-fluoropiperidin-4-yl)acetamide] | 8.3 nM | 1.17 nM | – |
| CC(C)(O)[C@@H]1C[C@H]1c1nnc(-c2cnc(-c3ccc4cc(C#N)cnn34)cc2NC2COC2)s1 (single isomer, unassigned; isomer 2) [136 Isomer 2] | – | – | EC50 (TNFα; [5]): 4 nM; IC50 (IRAK4 enzyme; [6]): 0.53 nM |
